# Data published in patent US8796330B2, “Inhibitors of histone deacetylase and prodrugs thereof” (Methylgene Inc., priority 2006, dated 2014).
# System: histone deacetylase in nuclear extracts from H446 cells (pooled HDACs)
# Test: Inhibition of histone deacetylase in H446 nuclear extracts ([3H]-acetylated histone substrate)
# Type: biochemical, human
# Conditions: not given
row,SMILES,pooled HDACs percent inhibition [% @ 20 μM]
1,"O=C(NO)c1ccc(CCS(=O)(=O)c2ccccc2)cc1 [Compound 73, N-Hydroxy-4-(2-benzenesulfonyl)-ethyl benzamide]",35

# Same assay, conditions: H446 nuclear extract
row,IC50 [µM],SMILES
1,7,O=C(Cc1ccc(NS(=O)(=O)c2cc3ccccc3s2)cc1)NO [Compound 4]
2,70,"O=C(Cc1ccc(NS(=O)(=O)c2ccccc2[N+](=O)[O-])cc1)NO [Compound 7, 2-[4-(2-nitrobenzenesulfonylamino)-phenyl]-N-hydroxy-acetamide]"
3,15,"O=C(Cc1ccc(NS(=O)(=O)c2cc(Cl)ccc2Cl)cc1)NO [Compound 8, 2-[4-(2,5-dichlorobenzenesulfonylamino)-phenyl]-N-hydroxy-acetamide]"
4,9,"Cc1ccc(S(=O)(=O)Nc2ccc(CC(=O)NO)cc2)cc1 [Compound 9, 2-[4-(4-methylbenzenesulfonylamino)-phenyl]-N-hydroxy-acetamide]"
5,30,"O=C(Cc1ccc(NS(=O)(=O)c2cccc(C(F)(F)F)c2)cc1)NO [Compound 10, 2-[4-(3-trifluoromethylbenzenesulfonylamino)-phenyl]-N-hydroxy acetamide]"
6,0.9,O=C(NO)c1ccc(NS(=O)(=O)c2cc3ccccc3s2)cc1 [Compound 13]
7,25,"O=C(Cc1ccc(NS(=O)(=O)c2ccc(Cl)c(Cl)c2)cc1)NO [Compound 15, 2-[4-(3,4-dichlorobenzenesulfonylamino)-phenyl]-N-hydroxy-acetamide]"
8,160,"O=C(Cc1ccc(NS(=O)(=O)c2cccc3cccnc23)cc1)NO [Compound 18, 2-[4-(8-quinolinesulfonylamino)-phenyl]-N-hydroxy-acetamide]"
9,20,"O=C(Cc1ccc(NS(=O)(=O)c2ccc(Br)cc2)cc1)NO [Compound 19, 2-[4-(4-bromobenzenesulfonylamino)-phenyl]-N-hydroxy-acetamide]"
10,< 20,O=C(CCCCc1cccc(NS(=O)(=O)c2ccccc2)c1)NO [Compound 26]
11,< 20,"O=C(/C=C/C#Cc1ccc(NS(=O)(=O)c2ccccc2)cc1)NO [Compound 32, N-Hydroxy-5-[4-(benzenesulfonylamino)-phenyl]-4-yn-2-pentanamide]"
12,4,"O=C(/C=C/c1ccc(C(=O)NO)cc1)c1ccccc1 [Compound 45, N-Hydroxy-4-(3-oxo-3-phenylpropenyl)-benzamide]"
13,5,"O=C(CCc1ccc(C(=O)NO)cc1)c1ccccc1 [Compound 50, N-Hydroxy-4-(3-oxo-3-phenylpropyl)-benzamide]"
14,25,"O=C(CC(O)c1ccc(C(=O)NO)cc1)c1ccccc1 (stereo not drawn) [Compound 53, N-Hydroxy-4-(3-oxo-3-phenyl-1-hydroxypropyl)-benzamide]"
15,15,"O=C(NO)c1ccc(CCCc2ccccc2)cc1 [Compound 56, N-Hydroxy-4-(3-phenylpropyl)-benzamide]"
16,4,"O=C(NO)c1ccc(CCCCc2ccccc2)cc1 [Compound 61, N-Hydroxy-4-(4-phenylbutyl)-benzamide]"
17,0.35,O=C(/C=C/c1ccc(NS(=O)(=O)c2cccc3ccccc23)cc1)NO [Compound 93]

row,IC50 [µM],SMILES
1,0.9,O=C(/C=C/c1ccc(NS(=O)(=O)c2cccc3cccnc23)cc1)NO [Compound 99]
2,9,O=C(/C=C/c1ccc(CC(O)c2ccccc2)o1)NO (stereo not drawn) [Compound 136]
3,3.8,O=C(/C=C/c1ccc(NC(=O)Nc2ccc(Cl)cc2)cc1)NO [Compound 145]
4,2.9,O=C(/C=C/c1ccc(NC(=O)Nc2cccc3ccccc23)cc1)NO [Compound 146]
5,1.9,COc1ccc(NC(=O)Nc2ccc(/C=C/C(=O)NO)cc2)cc1OC [Compound 147]
6,5,O=C(NO)c1ccc(CCCS(=O)(=O)c2ccccc2)cc1 [Compound 148]
7,10,O=C(NO)c1ccc(CCc2ccccc2)cc1 [Compound 150]
8,7.5,O=C(NO)c1ccc(/C=C/c2ccccc2)cc1 [Compound 151]
9,5,O=C(NO)c1ccc(CCCCCc2ccccc2)cc1 [Compound 153]
10,5,O=C(CCCc1ccc(CCCCc2ccccc2)cc1)NO [Compound 156]
11,6,O=C(CCc1ccc(CCc2ccccc2)cc1)NO [Compound 157]
12,> 20,O=C(Cc1ccc(CCCS(=O)(=O)c2ccccc2)cc1)NO [Compound 158]
13,20,CN(C)c1ccc(CCc2ccc(C(=O)NO)s2)cc1 [Compound 171]
14,10,CN(C)c1ccc(CCc2ccc(C(=O)NO)cc2)cc1 [Compound 172]
15,> 20,"O=C(Cc1ccc(CCCCc2ccccc2)cc1)NO [Compound 174, N-hydroxy-2-(4-(4-phenylbutyl)phenyl)acetamide]"
16,> 2,O=C(Cc1ccc(CCCc2ccccc2)cc1)NO [Compound 175]

# Same assay, conditions: H446 nuclear extract; @ 5 μM
row,SMILES,pooled HDACs percent inhibition [% @ 5 μM]
1,O=C(/C=C/c1ccc(NS(=O)(=O)c2ccccn2)cc1)NO [Compound 96],33
2,O=C(/C=C/c1ccc(NS(=O)(=O)c2cccnc2)cc1)NO [Compound 104],21

# Same assay, conditions: H446 nuclear extract; @ 20 μM
row,SMILES,pooled HDACs percent inhibition [% @ 20 μM]
1,"O=C(NO)c1cccc(CCc2ccccc2)c1 [Compound 68, N-Hydroxy-3-(2-phenylethyl)-benzamide]",3
2,"O=C(NO)c1ccc(CC[S+]([O-])c2ccccc2)cc1 (stereo not drawn) [Compound 71, N-Hydroxy-4-(2-benzenesulfoxide)-ethyl benzamide]",44
3,Nc1ccccc1NC(=O)/C=C/c1ccc(CC(=O)c2ccccc2)o1 [Compound 139],44
4,O=C(CCc1ccc(CC(=O)c2ccccc2)o1)NO [Compound 143],55
5,Nc1ccccc1NC(=O)CCc1ccc(CC(=O)c2ccccc2)o1 [Compound 144],6
6,O=C(NO)c1ccc(CCCC(O)c2ccc3ccccc3c2)cc1 (stereo not drawn) [Compound 149],8
7,O=C(CCCc1ccc(CCCc2ccccc2)cc1)NO [Compound 155],39
8,Nc1ccccc1NC(=O)/C=C/C#Cc1cccc(NS(=O)(=O)c2ccccc2)c1 [Compound 168],0
9,CN(C)c1ccc(CCc2ccccc2C(=O)NO)cc1 [Compound 173],35
10,O=C(CCC1CCC(CC(=O)c2ccccc2)O1)NO (stereo not drawn) [Compound 176],20
11,O=C(CCCc1ccc(C(=O)NO)cc1)c1ccccc1 [Compound 177],10

# Same assay, conditions: H446 nuclear extract; @ 100 μM
row,SMILES,pooled HDACs percent inhibition
1,O=C(Cc1cccc(NS(=O)(=O)c2cc3ccccc3s2)c1)NO [Compound 14],36% @ 100 μM
2,"O=C(Cc1ccc(NS(=O)(=O)c2cccs2)cc1)NO [Compound 16, 2-[4-(2-Thiophenesulfonylamino)-phenyl]-N-hydroxy-acetamide]",38% 100 μM
3,"O=C(Cc1ccc(NS(=O)(=O)c2cccc([N+](=O)[O-])c2)cc1)NO [Compound 17, 2-[4-(3-nitrobenzenesulfonylamino)-phenyl]-N-hydroxy-acetamide]",47% 100 μM
4,"O=C(NO)c1cccc(CCCc2ccccc2)c1 [Compound 64, N-Hydroxy-3-(3-phenylpropyl)-benzamide]",12% @ 100 μM
